Measurements as given in US11091472B2, “PI-kinase inhibitors with anti-infective activity” (The Board of Trustees of the Leland Stanford Junior …, priority 2016, dated 2021).

Molecular target: PI4KIIIB (Bos taurus (Bovine), UniProt O02810)
Test: PI4KIIIβ kinase assay (immunoprecipitated HA-tagged enzyme, [γ-32P]-ATP)
Format: biochemical
Conditions: kinase activity

Chain of PI4KIIIB (O02810 whole entry): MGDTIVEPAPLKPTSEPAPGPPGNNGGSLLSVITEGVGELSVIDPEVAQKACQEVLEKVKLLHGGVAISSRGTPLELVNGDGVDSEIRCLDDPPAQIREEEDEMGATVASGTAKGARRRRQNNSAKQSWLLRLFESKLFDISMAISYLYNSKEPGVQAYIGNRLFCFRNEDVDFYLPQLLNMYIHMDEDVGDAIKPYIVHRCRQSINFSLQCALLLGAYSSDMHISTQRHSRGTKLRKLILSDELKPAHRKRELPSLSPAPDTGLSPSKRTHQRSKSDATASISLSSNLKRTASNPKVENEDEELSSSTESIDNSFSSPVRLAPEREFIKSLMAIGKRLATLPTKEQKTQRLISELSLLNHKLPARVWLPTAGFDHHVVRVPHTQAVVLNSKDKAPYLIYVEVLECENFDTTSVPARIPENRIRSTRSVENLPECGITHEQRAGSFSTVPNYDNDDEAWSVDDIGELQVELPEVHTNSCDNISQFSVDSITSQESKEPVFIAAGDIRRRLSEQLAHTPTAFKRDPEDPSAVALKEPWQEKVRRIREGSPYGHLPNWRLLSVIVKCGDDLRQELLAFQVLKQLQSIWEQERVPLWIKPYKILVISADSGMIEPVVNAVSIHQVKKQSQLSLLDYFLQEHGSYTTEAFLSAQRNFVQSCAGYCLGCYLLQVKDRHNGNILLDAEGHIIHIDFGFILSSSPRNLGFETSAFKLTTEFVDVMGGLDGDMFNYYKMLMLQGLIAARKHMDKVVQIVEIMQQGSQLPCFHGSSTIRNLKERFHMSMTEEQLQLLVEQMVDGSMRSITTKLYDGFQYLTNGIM

SMILES	IC50 [nM]
COc1ccc(-c2sc(NC(=O)C3CCCC3)nc2C)cc1S(=O)(=O)N[C@H]1CC[C@H](O)CC1 [Compound S-9]	< 100
COc1ccc(-c2sc(NC(=O)C3CCCC3)nc2C)cc1S(=O)(=O)Nc1ccc(CO)cc1 [Compound S-41]	< 100
COc1ccc(-c2sc(NC(=O)Cc3ccccc3)nc2C)cc1S(=O)(=O)Nc1ccc(O)cc1 [Compound S-49]	< 100
COc1ccc(-c2sc(NCC3CCCCC3)nc2C)cc1S(=O)(=O)NC1CCNCC1 [Compound S-123]	< 100
COc1ccc(-c2sc(NCC3CCCCC3)nc2C)cc1S(=O)(=O)NC1CCN(C2CCCC2)CC1 [Compound S-133]	< 100
COc1ccc(-c2sc(NCC3CCCCC3)nc2C)cc1S(=O)(=O)NC1CCN(C(C)C)CC1 [Compound S-134]	< 100
COc1ccc(-c2sc(NCC3CCCCC3)nc2C)cc1S(=O)(=O)NC1CCN(C2CC2)CC1 [Compound S-135]	< 100
COc1ccc(-c2sc(NCC3CCCCC3)nc2C)cc1S(=O)(=O)NC1CCN(C2CCCCC2)CC1 [Compound S-136]	< 100
COc1ccc(-c2sc(NC(=O)CC3CCCC3)nc2C)cc1S(=O)(=O)N[C@H]1CC[C@H](O)CC1 [Compound S-151]	< 100
COc1ccc(-c2sc(NC(=O)CC3CCCC3)nc2C)cc1S(=O)(=O)NCCCCO [Compound S-152]	< 100
COc1ccc(-c2sc(NC(=O)CC3CCCC3)nc2C)cc1S(=O)(=O)N1CC[C@@H](O)C1 [Compound S-153]	< 100
COc1ccc(-c2sc(NC3CCCCC3)nc2C)cc1S(=O)(=O)N[C@H]1CC[C@H](O)CC1 [Compound S-166]	< 100
COc1ccc(-c2sc(NC3CCCCC3)nc2C)cc1S(=O)(=O)N[C@H]1CC[C@@H](O)CC1 [Compound S-167]	< 100
COc1ccc(-c2sc(N[C@@H](C)C3CCCCC3)nc2C)cc1S(=O)(=O)N[C@H]1CC[C@H](O)CC1 [Compound S-183]	< 100
Cc1ccc(-c2sc(NC(=O)CC3CCCC3)nc2C)cc1S(=O)(=O)NC1CCNCC1 [Compound S-188]	< 100
COc1ccc(-c2sc(N[C@H](C)C3CCCCC3)nc2C)cc1S(=O)(=O)N[C@@H]1CCNC1 [Compound S-197]	< 100
COc1ccc(-c2sc(N[C@H](C)C3CCCCC3)nc2C)cc1S(=O)(=O)N[C@H]1CC[C@@H](O)CC1 [Compound S-198]	100 to 1000
COc1ccc(-c2sc(N[C@H](C)C3CCCCC3)nc2C)cc1S(=O)(=O)N[C@H]1CCNC1 [Compound S-201]	< 100
COc1ccc(-c2sc(NCCC3CCCCC3)nc2C)cc1S(=O)(=O)NC1CCNCC1 [Compound S-202]	< 100
COc1ccc(-c2sc(N[C@@H](C)C3CCCCC3)nc2C)cc1S(=O)(=O)N[C@H]1CC[C@@H](O)CC1 [Compound S-206]	1000 to 10000
COc1ccc(-c2sc(NC(C)(C)C)nc2C)cc1S(=O)(=O)NC1CCNCC1 [Compound S-219]	< 100
COc1ccc(-c2sc(NCC(C)C)nc2C)cc1S(=O)(=O)N[C@H]1CC[C@H](O)CC1 [Compound S-221]	< 100
COc1ccc(-c2sc(NCC(C)C)nc2C)cc1S(=O)(=O)N[C@H]1CC[C@@H](O)CC1 [Compound S-222]	< 100
COc1ccc(-c2sc(NC(=O)CC3CCOCC3)nc2C)cc1S(=O)(=O)Nc1cccc(C)c1 [Compound S-226]	< 100
